Here are results for two molecules from patent US20220193189A1, “USE OF Dvl3-DEP PEPTIDE IN PREPARATION OF MEDICAMENT FOR REPAIRING SERTOLI CELL INJURY IN TESTES” (The Second Affiliated Hospital and Yuying Children's …, priority 2020, published 2022).

For series [1] the following is noted: cited from earlier work.
For series [2], the system named is polymerized/free Actin in Sertoli cells. Description: G-Actin/F-actin polymerization test (ultracentrifugation, Western blot). Conditions: after PFOS treatment. It is filed as cell-based, SD rat. The source says: (§1) A total of 10 male SD rats at the age of 20 days were sacrificed and testes were collected. The testicular envelope and free seminiferous tubules were removed, and the remaining tissue was cut to 1 mm^3 with scissors and then digested successively with trypsin, protease inhibitor, collagenase, hyaluronidase, and other enzymes. Cell masses obtained from digestion were pipetted up and down with a glass Pasteur pipette and then subjected to density gradient centrifugation, and finally the volume of precipitated cells was measured and converted into the number of cells. Finally, the cells were cultivated in an F12/DMEM cell culture medium with human transferrin (5 μg/mL), bovine insulin (10 μg/mL), bacitracin (5 μg/mL), epithelial growth factor (EGF) (2.5 ng/mL), and the like. The cells were cultivated at 5% CO2 and 35° C. to obtain primary Sertoli cells.
Isolation and cultivation of cells were conducted according to the method in Example 2, and obtained cells were inoculated in a prepared 6-well plate. Cells in each group were collected immediately after the experiment ended. Related Actin and Tubulin polymerization tests were conducted on cells in the DEP peptide overexpression group and cells in the empty plasmid transfection group using G-Actin/F-actin polymerization detection kit (G-Actin/F-actin In Vivo Assay Biochem Kit, BK037, Cytoskeleton, Inc) and Microtubule/Tubulin polymerization detection kit (Microtubule/Tubulin In Vivo Assay Biochem Kit, BK038, Cytoskeleton, Inc). Related detection methods can refer to product descriptions. The main purpose of these tests is to separate polymerized cytoskeleton proteins (F-actin and Microtubule) and free monomeric cytoskeleton proteins (G-actin and Tubulin) in a cell lysate by ultracentrifugation. Then the polymerized cytoskeleton protein (a precipitate obtained from the ultracentrifugation) and the monomeric cytoskeleton protein (a supernatant obtained from the ultracentrifugation) in the cell lysate system were detected separately by Western blot. […]

Series [3] deals with Sertoli cells. Description: IF staining of tight junction-associated protein ZO-1 in Sertoli cells in vitro. Format: cell-based, SD rat. Conditions: PFOS 20 μM for 24 h, empty plasmid transfection group, day 6, vs blank control group.
From the text: as §1, with “Sertoli cells. […]” for “Sertoli cells.”
In order to observe the tight junction morphology among Sertoli cells cultivated in vitro, IF staining (green fluorescent) was conducted using an antibody for the Sertoli cell tight junction-associated protein ZO-1 (ThermoFisher, 61-7300), and the nucleus was stained with DAPI (blue fluorescence) after the above staining. After mounting, a fluorescence microscope was used to observe and take pictures.

The test system of series [4] is polymerized/free Tubulin in Sertoli cells. The series is described as follows: Microtubule/Tubulin polymerization test (ultracentrifugation, Western blot). Format: cell-based, SD rat. As to conditions: after PFOS treatment.
From the text: as §1
Isolation and cultivation of cells were conducted according to the method in Example 2, and obtained cells were inoculated in a prepared 6-well plate. Cells in each group were collected immediately after the experiment ended. […] Then the polymerized cytoskeleton protein (a precipitate obtained from the ultracentrifugation) and the monomeric cytoskeleton protein (a supernatant obtained from the ultracentrifugation) in the cell lysate system were detected separately by Western blot. […]
On the technique in general: Immunoblotting shows a protein as a band on a membrane.

[5] abbreviates: pCI-neo empty plasmid transfection group.

Take `O=S(=O)(O)C(F)(F)C(F)(F)C(F)(F)C(F)(F)C(F)(F)C(F)(F)C(F)(F)C(F)(F)F` [PFOS, Perfluorooctane sulphonate]: the human metabolic half-life entry in series [1] is given as “more than 5 years”. Besides, the “F-actin level (precipitate of ultracentrifugation, Western blot)” value in series [2] (setting [5]) is given as “low, which was almost comparable to that in the negative control group”. In addition, in series [3], the “cell-cell junction interface (ZO-1 IF staining)” value is “significantly damaged”. In addition, the “Microtubule level (precipitate of ultracentrifugation, Western blot)” value in series [4] (setting [5]) is reported as “low, which was almost comparable to that in the negative control group”.

B1: DEP peptide: Dvl3-DEP peptide with amino acid sequence SEQ ID NO. 1, overexpressed in Sertoli cells (protein)
chain: PESGLEVRDRMWLKITIPNAFIGSDVVDWLYHNVEGFTDRREARKYASNLLKAGFIRHTVNKITFSEQCYYIFGD
modifications: amino acid sequence of Dvl3-DEP peptide
notes: 1, overexpressed in Sertoli cells
As for B1, the “F-actin level (precipitate of ultracentrifugation, Western blot)” value in series [2] (DEP peptide overexpression group, positive control 0.1 uM phalloidin) was “lower than that in the positive control group but significantly higher than that in the empty plasmid transfection group”. Besides, the “free G-actin content in the cell lysate supernatant (Western blot)” value in series [2] (empty plasmid transfection group vs DEP peptide overexpression group) was “empty plasmid transfection group was higher than that of the DEP peptide overexpression group”. The “Microtubule level (precipitate of ultracentrifugation, Western blot)” value in series [4] (DEP peptide overexpression group, positive control 20 uM paclitaxel) is given as “lower than that in the positive control group but significantly higher than that in the empty plasmid transfection group”.
